# Results from US7250442B2, “Dihydroindol-2-one derivatives as steroid hormone nuclear receptor modulators” (Eli Lilly and Company, priority 2003, dated 2007).
# Biological target: T1, glucocorticoid receptor (Homo sapiens, UniProt P04150)
# T1 construct: host or cells: A549 human lung epithelial cells (sonicated cell extract)
# T1 sequence (P04150 1-777): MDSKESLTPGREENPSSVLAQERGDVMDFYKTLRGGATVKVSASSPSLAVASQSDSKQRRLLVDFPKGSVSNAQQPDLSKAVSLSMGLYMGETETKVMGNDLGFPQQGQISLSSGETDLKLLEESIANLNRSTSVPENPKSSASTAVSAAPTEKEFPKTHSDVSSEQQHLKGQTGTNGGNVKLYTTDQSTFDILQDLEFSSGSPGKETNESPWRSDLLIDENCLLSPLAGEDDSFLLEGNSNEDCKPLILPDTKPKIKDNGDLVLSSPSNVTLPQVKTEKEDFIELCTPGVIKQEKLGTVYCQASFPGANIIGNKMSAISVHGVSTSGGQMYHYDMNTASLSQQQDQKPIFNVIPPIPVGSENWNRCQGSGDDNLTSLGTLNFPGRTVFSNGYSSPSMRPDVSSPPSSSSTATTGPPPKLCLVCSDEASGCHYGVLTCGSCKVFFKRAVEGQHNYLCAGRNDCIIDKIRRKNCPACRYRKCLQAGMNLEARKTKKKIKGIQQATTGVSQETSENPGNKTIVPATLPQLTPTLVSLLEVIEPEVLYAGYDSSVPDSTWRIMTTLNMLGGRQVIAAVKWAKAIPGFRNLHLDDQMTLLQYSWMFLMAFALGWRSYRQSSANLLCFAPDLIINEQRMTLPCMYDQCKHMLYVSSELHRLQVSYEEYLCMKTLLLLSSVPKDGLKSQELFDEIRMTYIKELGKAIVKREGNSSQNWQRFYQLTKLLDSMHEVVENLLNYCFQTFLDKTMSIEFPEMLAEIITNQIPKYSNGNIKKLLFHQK
# Experiment: Glucocorticoid Receptor Binding Assay ([3H]-dexamethasone displacement, A549 cell extract)
# Conditions: A549 human lung epithelial cell extract, 1.86 nM [3H]-dexamethasone; read-out: GR Ki
# Description: Glucocorticoid Receptor Binding Assay:
# A549 human lung epithelial cells (ATCC) are grown at a scale where gram quantity cell pellets are obtained. Harvested cell pellets are washed twice in cold phosphate buffered saline, centrifuged, and resuspended in cold assay binding buffer. The assay binding buffer consists of 10% glycerol, 50 mM Tris-HCl (pH7.2), 75 mM sodium chloride, 1.5 mM magnesium chloride, 1.5 mM EDTA, and 10 mM sodium molybdate. Cell suspensions were lysed via sonication, centrifuged, and the “extract” supernatant is snap frozen and stored at −80C. until needed.
# GR binding assays are performed in a final volume of 140 ul containing 50-200 ug of A549 cell extract and 1.86 nM [^3H]-dexamethasone (Amersham) plus varying concentrations of test compound or vehicle. Briefly, assays are prepared at RT in 96-well Fisher 3356 plates, each well containing 100 ul of A549 cell extract, 20 ul of [^3H]-dexamethasone, and 20 ul of test compound/vehicle. Incubations are carried out at 4 degrees celsius for 16 hours. After incubation, 70 ul of 3× dextran-coated charcoal solution is added to each reaction, mixed, and incubated for 8 minutes at RT. 3×-dextran-coated charcoal solution consists of 250 ml assay binding buffer, 3.75 g Norit A charcoal (Sigma), and 1.25 g dextran T-70 (Amersham). Charcoal/unbound radioligand complexes are removed by centrifugation of the plate and 140 ul of supernatant from each well is transferred to another 96 well Optiplate (Packard Instruments). 200 ul of Microscint-20 scinillant (Packard Instruments) is added to each well and amount of receptor bound radioligand is determined using Packard Instruments TopCount instrument.
# IC50 values, defined as the concentration of test compound required to decrease [^3H]-dexamethasone binding by 50%, are then determined. Ki values for each respective test compound can then be calculated by application of the Cheng-Prusoff equation as described in Cheng et al., Relationship Between The Inhibition Constant (Ki) and The Concentration of Inhibitor Which Causes 50% Inhibition (IC50) of an Enzymatic Reaction, Biochem. Pharmacol., 22: 3099-31088; (1973).
row,SMILES,Ki
1,"COc1ccc(-c2nc(CN3C(=O)C(c4cc(C)c(O)c(C)c4)(c4cc(C)c(O)c(C)c4)c4cc(C)ccc43)cs2)cc1 [Example 95, 3,3-Bis-(4-hydroxy-3,5-dimethyl-phenyl)-1-[2-(4-methoxy-phenyl)-thiazol-4-ylmethyl]-5-methyl-1,3-dihydro-indol-2-one]",≤ 1000 nM
2,"Cc1cc(C2(c3cc(C)c(O)c(C)c3)C(=O)N(Cc3ccc4ccccc4n3)c3ccccc32)cc(C)c1O [Example 97, 3,3-Bis-(4-hydroxy-3,5-dimethyl-phenyl)-1-quinolin-2-ylmethyl-1,3-dihydro-indol-2-one]",≤ 500 nM
3,"COc1ccc(-c2nc(CN3C(=O)C(c4cc(C)c(O)c(C)c4)(c4cc(C)c(O)c(C)c4)c4ccccc43)no2)cc1 [Example 99, 3,3-Bis-(4-hydroxy-3,5-dimethyl-phenyl)-1-[5-(4-methoxy-phenyl)-[1,2,4]oxadiazol-3-ylmethyl]-1,3-dihydro-indol-2-one]",≤ 1000 nM
4,"C#CCN1C(=O)C(c2cc(C)c(O)c(C)c2)(c2cc(C)c(O)c(C)c2)c2ccccc21 [Example 101, 3,3-Bis-(4-hydroxy-3,5-dimethyl-phenyl)-1-prop-2-ynyl-1,3-dihydro-indol-2-one]",≤ 500 nM
5,"CC(C)=CCN1C(=O)C(c2cc(C)c(O)c(C)c2)(c2cc(C)c(O)c(C)c2)c2ccccc21 [Example 102, 3,3-Bis-(4-hydroxy-3,5-dimethyl-phenyl)-1-(3-methyl-but-2-enyl)-1,3-dihydro-indol-2-one]",≤ 500 nM
6,"C=C(C)CN1C(=O)C(c2cc(C)c(O)c(C)c2)(c2cc(C)c(O)c(C)c2)c2ccccc21 [Example 106, 3,3-Bis-(4-hydroxy-3,5-dimethyl-phenyl)-1-(2-methyl-allyl)-1,3-dihydro-indol-2-one]",≤ 500 nM
7,"COC(=O)c1ccc(CN2C(=O)C(c3cc(C)c(O)c(C)c3)(c3cc(C)c(O)c(C)c3)c3ccccc32)o1 [Example 108, 5-[3,3-Bis-(4-hydroxy-3,5-dimethyl-phenyl)-2-oxo-2,3-dihydro-indol-1-ylmethyl]-furan-2-carboxylic acid methyl ester]",≤ 500 nM
8,"CCOC(=O)CN1C(=O)C(c2cc(C)c(O)c(C)c2)(c2cc(C)c(O)c(C)c2)c2ccccc21 [Example 109, [3,3-Bis-(4-hydroxy-3,5-dimethyl-phenyl)-2-oxo-2,3-dihydro-indol-1-yl]-acetic acid ethyl ester]",≤ 500 nM
9,"Cc1cc(C2(c3cc(C)c(O)c(C)c3)C(=O)N(CCC3CCCCC3)c3ccccc32)cc(C)c1O [Example 110, 1-(2-Cyclohexyl-ethyl)-3,3-bis-(4-hydroxy-3,5-dimethyl-phenyl)-1,3-dihydro-indol-2-one]",≤ 500 nM
10,"Cc1cc(C2(c3cc(C)c(O)c(C)c3)C(=O)N(Cc3ccncc3)c3ccccc32)cc(C)c1O [Example 111, 3,3-Bis-(4-hydroxy-3,5-dimethyl-phenyl)-1-pyridin-4-ylmethyl-1,3-dihydro-indol-2-one]",≤ 500 nM
11,"Cc1cc(C2(c3cc(C)c(O)c(C)c3)C(=O)N(Cc3c(Cl)cccc3Cl)c3ccccc32)cc(C)c1O [Example 113, 1-(2,6-Dichloro-benzyl)-3,3-bis-(4-hydroxy-3,5-dimethyl-phenyl)-1,3-dihydro-indol-2-one]",≤ 500 nM
12,"Cc1cc(C2(c3cc(C)c(O)c(C)c3)C(=O)N(Cc3c(F)cccc3F)c3ccccc32)cc(C)c1O [Example 115, 1-(2,6-Difluoro-benzyl)-3,3-bis-(4-hydroxy-3,5-dimethyl-phenyl)-1,3-dihydro-indol-2-one]",≤ 500 nM
13,"Cc1cc(C2(c3cc(C)c(O)c(C)c3)C(=O)N(Cc3ccccc3N)c3ccccc32)cc(C)c1O [Example 119, 1-(2-Amino-benzyl)-3,3-bis-(4-hydroxy-3,5-dimethyl-phenyl)-1,3-dihydro-indol-2-one]",≤ 500 nM
14,"Cc1ccc(N2C(=O)C(c3cc(C)c(O)c(C)c3)(c3cc(C)c(O)c(C)c3)c3ccccc32)cc1 [Example 125, 3,3-Bis-(4-hydroxy-3,5-dimethyl-phenyl)-1-p-tolyl-1,3-dihydro-indol-2-one]",≤ 500 nM
15,"Cc1cc(C2(c3cc(C)c(O)c(C)c3)C(=O)N(c3ccccc3)c3ccccc32)cc(C)c1O [Example 126, 3,3-Bis-(4-hydroxy-3,5-dimethyl-phenyl)-1-phenyl-1,3-dihydro-indol-2-one]",≤ 500 nM
16,"Cc1cc(C2(c3cc(C)c(O)c(C)c3)C(=O)N(c3cccc(C(F)(F)F)c3)c3ccccc32)cc(C)c1O [Example 127, 3,3-Bis-(4-hydroxy-3,5-dimethyl-phenyl)-1-(3-trifluoromethyl-phenyl)-1,3-dihydro-indol-2-one]",≤ 500 nM
17,"Cc1cc(C2(c3cc(C)c(O)c(C)c3)C(=O)N(c3ccccc3Cl)c3ccccc32)cc(C)c1O [Example 129, 1-(2-Chloro-phenyl)-3,3-bis-(4-hydroxy-3,5-dimethyl-phenyl)-1,3-dihydro-indol-2-one]",≤ 500 nM
18,"Cc1cc(C2(c3cc(C)c(O)c(C)c3)C(=O)N(c3cccc(F)c3)c3ccccc32)cc(C)c1O [Example 130, 1-(3-Fluoro-phenyl)-3,3-bis-(4-hydroxy-3,5-dimethyl-phenyl)-1,3-dihydro-indol-2-one]",≤ 500 nM
19,"Cc1cc(C2(c3cc(C)c(O)c(C)c3)C(=O)N(c3ccc(C(F)(F)F)cc3)c3ccccc32)cc(C)c1O [Example 131, 3,3-Bis-(4-hydroxy-3,5-dimethyl-phenyl)-1-(4-trifluoromethyl-phenyl)-1,3-dihydro-indol-2-one]",≤ 500 nM
20,"Cc1ccccc1N1C(=O)C(c2cc(C)c(O)c(C)c2)(c2cc(C)c(O)c(C)c2)c2ccccc21 [Example 132, 3,3-Bis-(4-hydroxy-3,5-dimethyl-phenyl)-1-o-tolyl-1,3-dihydro-indo 1-2-one]",≤ 500 nM
21,"Cc1cccc(N2C(=O)C(c3cc(C)c(O)c(C)c3)(c3cc(C)c(O)c(C)c3)c3ccccc32)c1 [Example 133, 3,3-Bis-(4-hydroxy-3,5-dimethyl-phenyl)-1-m-tolyl-1,3-dihydro-indol-2-one]",≤ 500 nM
22,"Cc1cc(C2(c3cc(C)c(O)c(C)c3)C(=O)N(c3ccncc3)c3ccccc32)cc(C)c1O [Example 136, 3,3-Bis-(4-hydroxy-3,5-dimethyl-phenyl)-1-pyridin-4-yl-1,3-dihydro-indol-2-one]",≤ 500 nM
23,"CCOc1cccc(N2C(=O)C(c3cc(C)c(O)c(C)c3)(c3cc(C)c(O)c(C)c3)c3ccccc32)c1 [Example 137, 1-(3-Ethoxy-phenyl)-3,3-bis-(4-hydroxy-3,5-dimethyl-phenyl)-1,3-dihydro-indol-2-one]",≤ 500 nM
24,"Cc1cc(C2(c3cc(C)c(O)c(C)c3)C(=O)N(c3cccc(C(C)C)c3)c3ccccc32)cc(C)c1O [Example 138, 3,3-Bis-(4-hydroxy-3,5-dimethyl-phenyl)-1-(3-isopropyl-phenyl)-1,3-dihydro-indol-2-one]",≤ 500 nM
25,"COc1ccc(N2C(=O)C(c3cc(C)c(O)c(C)c3)(c3cc(C)c(O)c(C)c3)c3ccccc32)cc1OC [Example 140, 1-(3,4-Dimethoxy-phenyl)-3,3-bis-(4-hydroxy-3,5-dimethyl-phenyl)-1,3-dihydro-indol-2-one]",≤ 500 nM
26,"COC(=O)c1cccc(-c2noc(CN3C(=O)C(c4cc(C)c(O)c(C)c4)(c4cc(C)c(O)c(C)c4)c4ccccc43)n2)c1 [Example 141, 3-{5-[3,3-Bis-(4-hydroxy-3,5-dimethyl-phenyl)-2-oxo-2,3-dihydro-indol-1-ylmethyl]-[1,2,4]oxadiazol-3-yl}-benzoic acid methyl ester]",≤ 500 nM
